13 compounds from patent US9212165B2, “Bicarbocyclic and tricarbocyclic ethynyl derivatives and uses of same” (H. Lundbeck A/S, priority 2011, dated 2015) can be followed below.

Broadly, the Ki is a measure of affinity in units of concentration, obtained from inhibition or displacement. Low values mean higher affinity, high ones lower affinity.

Chain of mGluR5 (MPEP binding site) (P41594 21-1212): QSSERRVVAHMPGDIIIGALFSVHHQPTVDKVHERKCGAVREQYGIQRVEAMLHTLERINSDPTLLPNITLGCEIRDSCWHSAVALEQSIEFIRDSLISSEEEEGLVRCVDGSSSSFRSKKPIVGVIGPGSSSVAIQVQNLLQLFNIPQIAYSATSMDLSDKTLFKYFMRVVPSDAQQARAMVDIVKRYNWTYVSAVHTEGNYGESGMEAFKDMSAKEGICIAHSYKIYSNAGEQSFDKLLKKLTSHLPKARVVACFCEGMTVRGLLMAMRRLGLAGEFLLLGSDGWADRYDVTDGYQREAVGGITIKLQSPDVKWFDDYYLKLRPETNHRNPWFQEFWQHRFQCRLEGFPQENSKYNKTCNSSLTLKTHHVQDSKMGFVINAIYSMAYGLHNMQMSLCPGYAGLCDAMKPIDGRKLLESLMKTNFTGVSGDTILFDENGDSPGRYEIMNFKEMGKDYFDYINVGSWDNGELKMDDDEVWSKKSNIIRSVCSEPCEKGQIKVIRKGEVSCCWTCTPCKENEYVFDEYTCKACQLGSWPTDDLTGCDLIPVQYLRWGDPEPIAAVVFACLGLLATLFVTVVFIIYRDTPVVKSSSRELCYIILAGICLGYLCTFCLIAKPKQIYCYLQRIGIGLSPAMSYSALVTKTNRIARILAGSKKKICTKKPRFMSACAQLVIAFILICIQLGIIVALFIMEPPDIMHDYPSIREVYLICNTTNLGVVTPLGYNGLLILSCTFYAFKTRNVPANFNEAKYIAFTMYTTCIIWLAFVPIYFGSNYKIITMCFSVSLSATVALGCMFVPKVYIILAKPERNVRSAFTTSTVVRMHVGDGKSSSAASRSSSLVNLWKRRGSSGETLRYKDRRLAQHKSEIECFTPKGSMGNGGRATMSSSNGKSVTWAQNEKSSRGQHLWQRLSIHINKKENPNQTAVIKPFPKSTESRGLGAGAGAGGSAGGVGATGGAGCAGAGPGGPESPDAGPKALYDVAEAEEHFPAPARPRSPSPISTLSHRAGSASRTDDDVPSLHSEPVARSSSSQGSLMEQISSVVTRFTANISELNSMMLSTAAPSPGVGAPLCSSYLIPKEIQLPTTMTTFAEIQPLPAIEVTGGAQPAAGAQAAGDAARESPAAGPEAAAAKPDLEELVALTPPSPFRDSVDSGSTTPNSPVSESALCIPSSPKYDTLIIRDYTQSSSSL

The target in the test is mGluR5 (MPEP binding site) (Homo sapiens (Human), UniProt P41594). The experiment in a line: Radioligand binding assay (MPEP site radioligand, membrane filtration). The settings on record: 5 nM radioligand binding to MPEP site; Cheng-Prusoff. On the procedure:
Binding assays were performed as described in [J. A. O'Brien et al. Mol Pharmacol., 2003, 64, 731-740] with slight modifications, including that a radioligand that binds to the […] (MPEP) binding site was used in place of [^3H] MPEP. Briefly, after thawing, the membrane homogenates were resuspended in 50 mM Tris-HCl and 0.9% NaCl binding buffer at pH 7.4 to a final assay concentration of 20 μg protein/well for radioligand filtration binding. Incubations included 5 nM radioligand, membranes and either buffer or varying concentrations of compound. Samples were incubated for 60 min at room temperature with shaking. Non-specific binding was defined with 10 μM cold MPEP when using the radioligand. After incubation, samples were filtered over a GF/C filter (presoaked in 0.25% polyethyleneimine (PEI)) and then washed 4 times using a Tomtec® Harvester 96® Mach III cell harvester (Tomtec, Hamden, Conn.) with 0.5 mL ice-cold 50 mM Tris-HCl (pH 7.4).
IC50 values were derived from the inhibition curve and Ki values were calculated according to the Cheng and Prusoff equation of Ki=IC50/(1+[L]/Kd) described in [Y. Cheng and W. H. Prusoff Biochem. Pharmacal. 1973, 22, 3099-3108] where [L] is the concentration of radioligand and Kd is its dissociation constant at the receptor, derived from the saturation isotherm.
On to `O=C(NC12CCCC(C#Cc3cccc(F)c3)(CC1)C2)c1cnccn1` (stereo not shown) [Example 3, pyrazine-2-carboxylic acid [5-(3-fluoro-phenylethynyl)-bicyclo[3.2.1]oct-1-yl]-amide], for which the Ki was found to be 3 nM.

`O=C(NC12CCCC(C#Cc3cnccn3)(CC1)C2)c1cccc(Cl)c1` (stereo not shown) [Example 13, 3-Chloro-N-(5-pyrazin-2-ylethynyl-bicyclo[3.2.1]oct-1-yl)-benzamide] had a Ki of 91 nM. The figure for `Cc1nccc(C(=O)N[C@]23CCC[C@](C#Cc4ccccn4)(CC2)C3)n1` [Example 18, 2-methyl-N-((1R,5S)-5-(pyridin-2-ylethynyl)bicyclo[3.2.1]octan-1-yl)pyrimidine-4-carboxamide] is 10 nM; for `O=C(N[C@]12CCC[C@](C#Cc3ccccn3)(CC1)C2)c1ccc(F)cn1` [Example 20, 5-fluoro-N-((1R,5S)-5-(pyridin-2-ylethynyl)bicyclo[3.2.1]octan-1-yl)picolinamide] it is 11 nM; for `Cc1nccc(C(=O)N[C@@]23CCC[C@@](C#Cc4ccccn4)(CC2)C3)n1` [Example 28, 2-methyl-N-((1S,5R)-5-(pyridin-2-ylethynyl)bicyclo[3.2.1]octan-1-yl)pyrimidine-4-carboxamide] it is 17 nM. Turning to `O=C(N[C@@]12CCC[C@@](C#Cc3ccccn3)(CC1)C2)c1ccc(F)cn1` [Example 30, 5-fluoro-N-((1S,5R)-5-(pyridin-2-ylethynyl)bicyclo[3.2.1]octan-1-yl)picolinamide], the affinity, expressed as Ki, was 35 nM. Compound `Cn1ccc(C(=O)N[C@]23CCC[C@](C#Cc4cnccn4)(CC2)C3)n1` [Example 44, 1-methyl-N-((1R,5S)-5-(pyrazin-2-ylethynyl)bicyclo[3.2.1]octan-1-yl)-1H-pyrazole-3-carboxamide] displayed an inhibition constant Ki of 34 nM. The figure for `Cc1csc(C(=O)N[C@]23CCC[C@](C#Cc4cnccn4)(CC2)C3)n1` [Example 45, 4-methyl-N-((1R,5S)-5-(pyrazin-2-ylethynyl)bicyclo[3.2.1]octan-1-yl)thiazole-2-carboxamide] is 6.2 nM; for `Cn1ccc(C(=O)N[C@@]23CCC[C@@](C#Cc4cnccn4)(CC2)C3)n1` [Example 49, 1-methyl-N-((1S,5R)-5-(pyrazin-2-ylethynyl)bicyclo[3.2.1]octan-1-yl)-1H-pyrazole-3-carboxamide] it is 590 nM; for `Cc1csc(C(=O)N[C@@]23CCC[C@@](C#Cc4cnccn4)(CC2)C3)n1` [Example 50, 4-methyl-N-((1S,5R)-5-(pyrazin-2-ylethynyl)bicyclo[3.2.1]octan-1-yl)thiazole-2-carboxamide] it is 38 nM.

Take `Cc1cncc(C#CC23CC4CC(C2)CC(NC(=O)c2cccc(F)c2)(C4)C3)n1` [Example 56, 3-fluoro-N-[3-(6-methylpyrazin-2-ylethynyl)-1-adamantyl]benzamide]: the inhibitory constant (Ki) came to 1300 nM. The value for `O=C(NC12CC3CC(CC(C#Cc4ccccn4)(C3)C1)C2)c1cnccn1` [Example 71, N-[3-(pyridin-2-ylethynyl)-1-adamantyl]pyrazine-2-carboxamide] was 4.7 nM.

`Cc1csc(C#CC23CC4CC(C2)CC(NC(=O)c2ccn(C)n2)(C4)C3)n1` [Example 81, 1-methyl-N-[3-(4-methylthiazol-2-ylethynyl)-1-adamantyl]-1H-pyrazole-3-carboxamide] came in with a Ki of 120 nM.
